Reference: ChEMBL document CHEMBL4673189, “Recent progress in the discovery of ghrelin O-acyltransferase (GOAT) inhibitors” (RSC Med Chem, 2020)
Blank lines part the entries; values can stand above or below the compound they belong to. Non-standard residues stand in square brackets, D forms with d. Residues, ends and D or L forms follow the SMILES beside them. *: point of attachment. Octanoyl = CCCCCCCC(=O)*; X1 = CC(C)C[C@@H](CN)N*; Dap = NC[C@H](N)C(=O)O

Assays:
[1] = In vivo inhibition of GOAT in C57BL/6 mouse assessed as reduction in ratio of AG to total-ghrelin at 18 mg/kg, po BID administered via gavage for 3 days by ELISA relative to control; format: functional; details: C57BL/6, po, 72 h, time 3 day
[2] = molecular target: T1, Membrane-bound ghrelin O-acyltransferase MBOAT4 (Homo sapiens, UniProt Q96T53); test: Inhibition of human His-tagged GOAT expressed in baculovirus infected Sf9 cell membrane using desacyl-ghrelin-biotin and octanoyl-CoA as substrate incubated for 1 hr by ELISA; format: cell membranes
T1 sequence (Q96T53 whole entry): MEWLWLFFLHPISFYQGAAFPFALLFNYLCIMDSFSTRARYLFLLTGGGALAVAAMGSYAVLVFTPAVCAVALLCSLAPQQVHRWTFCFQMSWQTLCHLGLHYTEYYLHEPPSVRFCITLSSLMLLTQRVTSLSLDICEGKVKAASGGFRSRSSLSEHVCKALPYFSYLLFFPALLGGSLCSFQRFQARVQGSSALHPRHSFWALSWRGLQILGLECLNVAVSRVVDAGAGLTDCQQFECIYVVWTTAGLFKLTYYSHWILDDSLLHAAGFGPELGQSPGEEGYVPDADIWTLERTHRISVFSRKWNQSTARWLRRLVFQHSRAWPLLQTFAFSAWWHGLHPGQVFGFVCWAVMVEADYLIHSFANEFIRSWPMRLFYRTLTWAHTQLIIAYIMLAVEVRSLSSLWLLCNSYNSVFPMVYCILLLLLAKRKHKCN

[3] = molecular target: T2, Membrane-bound ghrelin O-acyltransferase MBOAT4 (Mus musculus, UniProt P0C7A3); test: Inhibition of N-terminal His10-tagged mouse GOAT expressed in baculovirus infected sf9 insect cell membrane using proghrelin-His8 and [3H]octanoyl CoA as substrate by scintillation counting method; format: cell membranes
T2 sequence (P0C7A3 whole entry): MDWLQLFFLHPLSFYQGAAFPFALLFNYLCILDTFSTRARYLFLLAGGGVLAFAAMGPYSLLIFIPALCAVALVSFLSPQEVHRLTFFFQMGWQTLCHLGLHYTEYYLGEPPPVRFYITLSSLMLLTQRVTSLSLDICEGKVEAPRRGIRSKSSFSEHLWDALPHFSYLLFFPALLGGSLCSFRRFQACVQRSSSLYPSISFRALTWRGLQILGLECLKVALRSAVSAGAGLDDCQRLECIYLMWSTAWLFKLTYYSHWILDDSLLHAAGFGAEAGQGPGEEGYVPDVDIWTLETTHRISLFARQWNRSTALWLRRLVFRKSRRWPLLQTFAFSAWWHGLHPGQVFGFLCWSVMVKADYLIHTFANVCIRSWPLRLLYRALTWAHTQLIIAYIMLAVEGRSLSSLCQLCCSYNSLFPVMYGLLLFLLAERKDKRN

[4] = In vivo inhibition of GOAT in C57BL/6 mouse assessed as increase in unacylated-ghrelin level at 10 mg/kg, po BID administered via gavage for 3 days by ELISA relative to control; format: functional; details: time 3 day
[5] = In vivo inhibition of GOAT in C57BL/6 mouse assessed as decrease in plasma acylated ghrelin level at 3 mg/kg, po BID administered via gavage for 3 days by ELISA relative to control; format: functional; details: C57BL/6, po, 72 h, time 3 day
[6] = In vivo inhibition of GOAT in C57BL/6 mouse assessed as reduction in ratio of AG to total-ghrelin at 10 mg/kg, po BID administered via gavage for 3 days by ELISA relative to control; format: functional; details: C57BL/6, po, 72 h, time 3 day
[7] = In vivo inhibition of GOAT in C57BL/6 mouse assessed as reduction in ratio of AG to total-ghrelin at 3 mg/kg, po BID administered via gavage for 3 days by ELISA relative to control; format: functional; details: C57BL/6, po, 72 h, time 3 day
[8] = In vivo inhibition of GOAT in C57BL/6 mouse assessed as decrease in plasma acylated ghrelin level at 0.3 mg/kg, po BID administered via gavage for 3 days by ELISA relative to control; format: functional; details: C57BL/6, po, 72 h, time 3 day
[9] = In vivo inhibition of GOAT in C57BL/6 mouse assessed as reduction in ratio of AG to total-ghrelin at 1 mg/kg, po BID administered via gavage for 3 days by ELISA relative to control; format: functional; details: C57BL/6, po, 72 h, time 3 day
[10] = In vivo inhibition of GOAT in C57BL/6 mouse assessed as increase in unacylated-ghrelin level at 3 mg/kg, po BID administered via gavage for 3 days by ELISA relative to control; format: functional; details: time 3 day
[11] = In vivo inhibition of GOAT in C57BL/6 mouse assessed as reduction in ratio of AG to total-ghrelin at 0.3 mg/kg, po BID administered via gavage for 3 days by ELISA relative to control; format: functional; details: C57BL/6, po, 72 h, time 3 day
[12] = In vivo inhibition of GOAT in C57BL/6 mouse assessed as decrease in plasma acylated ghrelin level at 1 mg/kg, po BID administered via gavage for 3 days by ELISA relative to control; format: functional; details: C57BL/6, po, 72 h, time 3 day
[13] = In vivo inhibition of GOAT in C57BL/6 mouse assessed as increase in unacylated-ghrelin level at 1 mg/kg, po BID administered via gavage for 3 days by ELISA relative to control; format: functional; details: time 3 day
[14] = In vivo inhibition of GOAT in C57BL/6 mouse assessed as decrease in plasma acylated ghrelin level at 10 mg/kg, po BID administered via gavage for 3 days by ELISA relative to control; format: functional; details: C57BL/6, po, 72 h, time 3 day
[15] = In vivo inhibition of GOAT in C57BL/6 mouse assessed as increase in unacylated-ghrelin level at 0.3 mg/kg, po BID administered via gavage for 3 days by ELISA relative to control; format: functional; details: time 3 day
[16] = molecular target: T2, Membrane-bound ghrelin O-acyltransferase MBOAT4; test: Antagonist activity at mouse GOAT expressed in baculovirus infected sf9 insect cell membrane using ghrelin(1 to 5) pentapeptide as substrate preincubated for 5 mins followed by Palmitoyl-CoA and n-octynoyl-CoA addition and measured after 5 mins by amplex red/H2O2 reagent-based fluorescence method; format: cell membranes
[17] = In vivo inhibition of GOAT in C57BL/6 mouse assessed as reduction in ratio of AG to total-ghrelin at 0.1 mg/kg, po BID administered via gavage for 3 days by ELISA relative to control; format: functional; details: C57BL/6, po, 72 h, time 3 day
[18] = molecular target: T1, Membrane-bound ghrelin O-acyltransferase MBOAT4; test: Inhibition of human His-tagged GOAT expressed in baculovirus infected Sf9 cell membrane using biotinylated ghrelin peptide/octanoyl-CoA/palmitoyl CoA as substrate incubated for 80 mins by TR-FRET assay; format: cell membranes
[19] = In vivo inhibition of GOAT in cynomolgus monkey assessed as reduction in plasma acyl ghrelin AUC (0 to 24 hrs) at 10 mg/kg, po administered as single dose measured after 15 mins to 24 hrs relative to control; format: functional; details: Macaca fascicularis, 0.25 h
[20] = In vivo inhibition of GOAT in mouse model of HFHC-diet induced obesity assessed as reduction in acyl ghrelin level at 10 mg/kg, po administered once daily for 7 days relative to control; format: functional; details: 168 h, time 7 day
[21] = molecular target: T1, Membrane-bound ghrelin O-acyltransferase MBOAT4; test: Inhibition of human GOAT expressed in baculovirus infected sf9 insect cell membrane using GSSFLC-acrylodan and octanoyl-CoA as substrate preincubated for 30 mins followed by substrate addition and measured after 3 hrs by HPLC analysis; format: cell membranes
[22] = molecular target: T2, Membrane-bound ghrelin O-acyltransferase MBOAT4; test: Inhibition of mouse GOAT expressed in baculovirus infected sf9 insect cell microsomes using biotinylated des-acyl ghrelin and octanoyl-CoA -CoA as substrate incubated for 15 mins by HTRF assay; set-up: species or system Microsome
[23] = molecular target: T1, Membrane-bound ghrelin O-acyltransferase MBOAT4; test: Inhibition of human GOAT expressed in baculovirus infected sf9 insect cell microsomes using biotinylated des-acyl ghrelin and octanoyl-CoA as substrate incubated for 15 mins by HTRF assay; set-up: species or system Microsome
[24] = molecular target: T1, Membrane-bound ghrelin O-acyltransferase MBOAT4; test: Inhibition of GOAT (unknown origin)
[25] = molecular target: Growth hormone secretagogue receptor type 1 (Homo sapiens, UniProt Q92847); test: Inhibition of GHSR-1A (unknown origin)
Sequence of Growth hormone secretagogue receptor type 1 (Q92847 whole entry): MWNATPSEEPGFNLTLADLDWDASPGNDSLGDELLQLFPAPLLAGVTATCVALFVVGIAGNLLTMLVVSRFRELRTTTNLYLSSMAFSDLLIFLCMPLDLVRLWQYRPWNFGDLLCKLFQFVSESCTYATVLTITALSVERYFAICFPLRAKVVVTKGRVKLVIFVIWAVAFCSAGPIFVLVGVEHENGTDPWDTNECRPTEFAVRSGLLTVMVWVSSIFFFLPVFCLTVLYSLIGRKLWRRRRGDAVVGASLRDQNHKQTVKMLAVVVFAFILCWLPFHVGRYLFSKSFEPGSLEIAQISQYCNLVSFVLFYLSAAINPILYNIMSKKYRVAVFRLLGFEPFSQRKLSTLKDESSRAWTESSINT

IC50 [2]: 0.0689 µM
SMILES: C[C@H](NC(=O)c1ccn(C)n1)C(=O)N1CCC(CCc2c(N)nc(N)nc2Cl)CC1
inhibition in vivo at 18 mg/kg [1]: 86%

IC50 [3]: 0.03 µM
SMILES: CCCC[C@H]1C[C@H](C(=O)NC[C@H]2CCCN2C(=O)[C@@H](NC(=S)CNC)C(C)(C)C)C1

IC50 [2]: 0.192 µM
SMILES: C[C@H](NC(=O)C1CC1)C(=O)N1CCC(CCc2c(N)nc(N)nc2Cl)CC1
fold change (FC) [4]: 2.9
inhibition in vivo at 3 mg/kg [5]: 45%
inhibition in vivo at 10 mg/kg [6]: 77%
inhibition in vivo at 3 mg/kg [7]: 71%
inhibition in vivo at 0.3 mg/kg [8]: -1%
inhibition in vivo at 1 mg/kg [9]: 54%
fold change (FC) [10]: 2.53
inhibition in vivo at 0.3 mg/kg [11]: 39%
inhibition in vivo at 1 mg/kg [12]: 5%
fold change (FC) [13]: 2.82
inhibition in vivo at 10 mg/kg [14]: 48%
fold change (FC) [15]: 2.24

IC50 [3]: 7 µM
SMILES: CCCCCCCC(=O)OC[C@H](OC(=O)[C@H](CO)NC(=O)CN)C(=O)N[C@@H](Cc1ccccc1)C(=O)N[C@@H](CC(C)C)C(=O)N[C@@H](CO)C(=O)N1CCC[C@H]1C(=O)N[C@@H](CCC(=O)O)C(=O)N[C@@H](Cc1cnc[nH]1)C(=O)N[C@@H](CCC(N)=O)C(=O)N[C@@H](CCCCN)C(=O)N[C@@H](C)C(=O)N[C@@H](CCC(N)=O)C(=O)N[C@@H](CCC(N)=O)C(=O)N[C@@H](CCCNC(=N)N)C(=O)N[C@@H](CCCCN)C(=O)N[C@@H](CCC(=O)O)C(=O)N[C@@H](CO)C(=O)N[C@@H](CCCCN)C(=O)N[C@@H](CCCCN)C(=O)N1CCC[C@H]1C(=O)N1CCC[C@H]1C(=O)N[C@@H](C)C(=O)N[C@@H](CCCCN)C(=O)N[C@@H](CC(C)C)C(=O)N[C@@H](CCC(N)=O)C(=O)N1CCC[C@H]1C(=O)N[C@@H](CCCNC(=N)N)C(=O)O

IC50 [16]: 7.5 µM
SMILES: CCCCCCN(C(C)=O)C(CNCc1ccccc1)c1ccc2cc(O)ccc2c1 (centres undefined)

SMILES: COC(=O)N[C@@H](C)C(=O)N1CCC(CCc2c(N)nc(C)nc2Cl)CC1
inhibition in vivo at 3 mg/kg [5]: 66%
inhibition in vivo at 3 mg/kg [7]: 82%
fold change (FC) [10]: 2.9

SMILES: Cc1nc(C(F)(F)F)nc(N)c1CCC1CCN(C(=O)[C@H](C)NC(=O)c2ccnn2C)CC1
inhibition in vivo at 0.1 mg/kg [17]: 57%
inhibition in vivo at 10 mg/kg [6]: 82%
inhibition in vivo at 3 mg/kg [7]: 82%
inhibition in vivo at 1 mg/kg [9]: 79%
inhibition in vivo at 0.3 mg/kg [11]: 62%

IC50 [16]: 13 µM
SMILES: CCCCCCCCN(C(C)=O)C(CNCc1ccccc1)c1ccc2cc(O)ccc2c1 (centres undefined)

IC50 [18]: < 0.05 µM
SMILES: O=C(O)Cc1csc2cc(O[C@H]3CCc4ncccc43)cc(Cl)c12
inhibition in vivo at 10 mg/kg [19]: 51%
inhibition in vivo at 10 mg/kg [20]: 28%

IC50 [3]: 50 µM
SMILES: CCCCCCC[C@](C)(O)/C=C/[C@H](NC(=O)OCc1ccccc1)C(=O)OC

IC50 [21]: 8 µM
SMILES: CC1(C)C(=O)C(C#N)=C[C@]2(C)[C@H]3CC[C@]4(C)CCC[C@H]4[C@@H]3CC[C@@H]12

IC50 [3]: 90 µM
SMILES: CCCCCCC[C@H](O)/C=C/[C@H](NC(=O)OCc1ccccc1)C(=O)OC

IC50 [22]: 0.0033 µM
IC50 [23]: 0.0086 µM
SMILES: O=C(O)c1ccc2oc(SCc3ccc(Cl)cc3Cl)nc2c1

IC50 [3]: 45 µM
SMILES: CCCCCCCC(=O)OC[C@H](NC(=O)[C@H](CO)NC(=O)CN)C(=O)N[C@@H](Cc1ccccc1)C(=O)N[C@H](CN)CC(C)C (H-GSS(Octanoyl)F-X1)

IC50 [3]: 1 µM
SMILES: CCCCCCCC(=O)NC[C@H](NC(=O)[C@H](CO)NC(=O)CN)C(=O)N[C@@H](Cc1ccccc1)C(=O)N[C@H](CN)CC(C)C (H-GS[Dap](Octanoyl)F-X1)

IC50 [24]: 0.006 µM
IC50 [25]: 100 µM
SMILES: C[C@@H](O)[C@H](NC(=O)[C@@H]1CCCN1C(=O)[C@H](CO)NC(=O)[C@H](Cc1cccc2ccccc12)NC(=O)[C@H](CN)NC(=O)[C@H](CO)NC(=O)CN)C(N)=O (HELM PEPTIDE1{G.S.[NC[C@H](N[*:1])C(=O)[*:2]].[O=C([C@H](Cc1cccc2ccccc12)N[*:1])[*:2]].S.P.T.[am]}$$$$V2.0)
